For test [1], the system named is Human prostate carcinoma DU145. Kind of test: Cytotoxicity test (sulphorodamine B), DU145. In kind it is cell-based. Conditions: DU-145, 24 h incubation, survival 48 h after removal. From the text: (§1) Different cell lines deriving from solid tumors were also used. • 1. Human prostate carcinoma PC3 and DU145. These cell lines were maintained in RPMI 1640 medium containing 10% FCS, 1% sodium pyruvate and 1% glutamine; • 2. Human colon adenocarcinoma LoVo. This cell line was maintained in HAM's F-12 medium, containing 10% FCS and 1% glutamine. • 3. Human ovarian carcinoma such as A2780 and A2780/Dx, sensitive and resistant to drugs, respectively (doxorubicin, taxol, etoposide, vincristine); IGROV-1 and IGROV-1/Pt, sensitive and resistant to platinum-based chemotherapy, respectively, were maintained in RPMI 1640 medium containing 10% FCS, 1% sodium pyruvate and 1% glutamine; • 4. Human melanoma MeWo and MeS 2.21, glioblastoma GBM, no small cell lung carcinomas A431, NCI—H460, osteosarcomas SAOS and U2OS were maintained in RPMI 1640 medium containing 10% FCS, 1% sodium pyruvate and 1% glutamine.
(§2) The cytotoxicity tests were carried out using NB4 or HL-60 cells in suspension (10000/well). The cells were seeded in a volume of 250 μl in 96 well plates and incubated for 24 hours at 37° C. […] The optical density was measured using a Multiskan spectrophotometer at 540 nm. […]
(§3) Cell survival was determined by incubation with ST1926 for 24 hours, 48 hours after the removal of the compound. […]

In another test the test system is glioblastoma GBM. Kind of test: Cytotoxicity test (sulphorodamine B), GBM. In kind it is cell-based. To be noted: Homo sapiens, 24 h incubation, survival 48 h after removal.
Excerpt: as §1, §2, §3

The test system of test [2] is A2780/Dx multidrug-resistant human ovarian carcinoma cells. Kind of test: Cytotoxicity in combination with TRAIL, A2780/Dx. The class given is cell-based. Conditions: 72 hours, value >1 synergism (FIG. 1). On the procedure: FIG. 1 is a graph showing the interaction between ST1926 and TRAIL in A2780/Dx multidrug-resistant human ovarian carcinoma cells at different concentrations of TRAIL.
A study of cytotoxicity of ST1926 in combination with TRAIL was performed in two different tumor cell lines such as M109 murine lung carcinoma and A2780/Dx multidrug-resistant human ovarian carcinoma. Cells were maintained in RPMI 1640 medium containing 10% FCS, 1% sodium pyruvate and 1% glutamine.
The cells were seeded in a volume of 250 μl in 96 well plates and incubated for 24 hours at 37° C. The following day, test compound ST 1926 [(2E)-3-[3′-(1-Adamantyl)-4′-hydroxy[1,1′-biphenyl]-4-yl]-2-propenoate/ic acid] or TRAIL were added at increasing concentrations, and the cells were incubated for a further 72 hours at 37° C. in a humidified atmosphere containing 5% CO2. On the 5th day, the supernatant was removed by upturning the plates. 200 μl of PBS and 50 μl of cold, 80% TCA were added. The plates were then left to incubate on ice for at least 1 hour. The TCA was removed by upturning; the plates were washed three times by immersion in distilled water and dried first on paper, then with a jet of hot air. […] The optical density was measured using a Multiskan spectrophotometer at 540 nm.
The interaction between ST1926 and TRAIL was determined by using the analysis of Drewinko et al. (Cancer Biochem. Biophys. 1: 187-195, 1976). […]

In test [3] the test system is KG-1 and HL-60R leukemia and MDA-MB-231 breast cancer cells. To be noted: cited from earlier work.

The IC50 is the point on the concentration scale where inhibition reaches its midpoint. High values mean weaker potency, low ones greater potency.

Turning to `O=C(O)/C=C/c1ccc(-c2ccc(O)c(C34CC5CC(CC(C5)C3)C4)c2)cc1` [ST1926, E-4-(3-(1-adamantyl)-4-hydroxyphenyl)cinnamic acid], the concentration for half-maximal inhibition (IC50) in test [1] turned out to be 100 nM; in the test with glioblastoma GBM, 180 nM. Further, the “interaction between ST1926 and TRAIL (analysis of Drewinko et al.)” value in test [2] is reported as “synergic activity”. Further, the “induction of cancer cell apoptosis (in words)” value in test [3] is reported as “effectively induced cancer cell apoptosis”.

(Values after US7449495B2, “Retinoid derivatives with antiangiogenic, antitumoral and proapoptotic activities” (Sigma-Tau Industrie Farmaceutiche Riunite S.p.A., priority 2001, dated 2008).)
